# “Also recorded” adds a separate entry of the source.
# Experiments:
# U2OS cells = experiment: Live cells perfusion experiment with sensor expressed in the cytosol; type: cell-based; conditions: for sensor response (ratio TMR/SiR, NADPH/NADP^+): 100 μM perfused on U2OS cells
# Method: Semi-stable U2OS (SPR-Halo-p30-SNAP cloned in a pEBTet vector; see Bach et al. FEBS J. 2007 Feb.; 274(3):783-90 for the description of pEBTet) freshly trypsinated are diluted 5-fold with DMEM GlutaMax+10% FBS and 1 μg/mL puromycin. They are plated (2 mL) in previously sterilized and poly-L-ornithine coated (1 h incubation) glass coverslips (20×20 mm, VWR) in 12-well plate (TPP). On day 2, the expression is induced by 100 ng/mL doxycycline for ˜24 h. […] On day 4, the cells are washed 3 times with DMEM GlutaMax+10% FBS without phenol red (10 min incubation, 37° C., 5% CO2 between each step). After 30 min of incubation, the cells are ready for imaging. Glass coverslips with labelled U2OS cells were transferred to a Cytoo chamber (44×34×10 mm). Gravity fed perfusion of the chamber was performed at a flow rate of 1 mL/min. Time-course experiments of sensor imaging were performed using a Leica LAS AF 7000 wide-field microscope equipped with a 63× plan Apochromat 1.40 NA oil immersion objective lens. A xenon arc lamp was used for imaging of the U2OS cells. For each frame, the two channels (donor and FRET) were measured consecutively with an interval of 10 s between the two emission channels. The filter set Cy3/Cy5 was used for FRET ratio imaging with excitation at 530/35 and emission at 580/40 (Cy3) as well as excitation at 635/30 and emission at 700/72 (Cy5). If not indicated otherwise, the image size was […]. The reagent perfused during the experiment (H2O2, SPY) were dissolved in HBSS (Lonza). HBSS solution was continuously perfused during the other time point of the experiment.
# [1] = cited from earlier work
# Wild-type human SPR = Wild-type human SPR (Homo sapiens, UniProt P35270); conditions: cited from earlier work
# Sequence of Wild-type human SPR (P35270 whole entry): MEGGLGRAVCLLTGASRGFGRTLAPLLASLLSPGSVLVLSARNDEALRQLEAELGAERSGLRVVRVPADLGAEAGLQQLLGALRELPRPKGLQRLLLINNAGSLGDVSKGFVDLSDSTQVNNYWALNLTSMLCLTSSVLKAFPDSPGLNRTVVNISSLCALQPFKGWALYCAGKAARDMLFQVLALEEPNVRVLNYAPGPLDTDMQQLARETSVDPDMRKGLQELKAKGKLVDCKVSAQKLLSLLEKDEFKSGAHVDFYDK
molecule,measurement,setting,value
"OO [H2O2, hydrogen peroxide]","sensor response (ratio TMR/SiR, NADPH/NADP^+)",U2OS cells,decreased NADPH/NADP^+ ratio
same,"sensor response (ratio TMR/SiR, NADPH/NADP^+)",U2OS cells; listed as hydrogen peroxide,sharp decrease of the ratio
Nc1ccc(S(=O)(=O)Nc2ccccn2)cc1 [sulfapyridine],pKa of the sulfonamide proton,[1],8.4
same,sensor response (ratio TMR/SiR),U2OS cells; 2 mM perfused on U2OS cells,increased ratio TMR/SiR; also recorded: fully open the sensor
nicotinamide adenine dinucleotide phosphate [NADPH],Kd,Wild-type human SPR,1 µM
nicotinamide adenine dinucleotide phosphate [NADP^+],Kd,Wild-type human SPR,10 µM

# — US10221439B2, “Sensors, methods and kits for detecting nicotinamide adenine dinucleotides” (Max-Planck-Gesellschaft zur Förderung der Wissenschaften …, priority 2015, dated 2019)
